Experimental data published in patent publication US8959984B2, “Proteome-wide quantification of small molecule binding to cellular target proteins” (priority 2007, dated 2015).
Like-named read-outs stand apart in the source and are kept apart here.

How the values were obtained:
NUDT12 = NUDT12 (Homo sapiens, UniProt Q9BQG2)
MAP3K6 = biological target: T1, MAP3K6 (Homo sapiens, UniProt O95382); test: binding to immobilized V16742 (IVA1/IVA2, HeLa lysate, MS)
T1 construct: endogenous in cells; host or cells: HeLa S3
T1 sequence (O95382 1-1288): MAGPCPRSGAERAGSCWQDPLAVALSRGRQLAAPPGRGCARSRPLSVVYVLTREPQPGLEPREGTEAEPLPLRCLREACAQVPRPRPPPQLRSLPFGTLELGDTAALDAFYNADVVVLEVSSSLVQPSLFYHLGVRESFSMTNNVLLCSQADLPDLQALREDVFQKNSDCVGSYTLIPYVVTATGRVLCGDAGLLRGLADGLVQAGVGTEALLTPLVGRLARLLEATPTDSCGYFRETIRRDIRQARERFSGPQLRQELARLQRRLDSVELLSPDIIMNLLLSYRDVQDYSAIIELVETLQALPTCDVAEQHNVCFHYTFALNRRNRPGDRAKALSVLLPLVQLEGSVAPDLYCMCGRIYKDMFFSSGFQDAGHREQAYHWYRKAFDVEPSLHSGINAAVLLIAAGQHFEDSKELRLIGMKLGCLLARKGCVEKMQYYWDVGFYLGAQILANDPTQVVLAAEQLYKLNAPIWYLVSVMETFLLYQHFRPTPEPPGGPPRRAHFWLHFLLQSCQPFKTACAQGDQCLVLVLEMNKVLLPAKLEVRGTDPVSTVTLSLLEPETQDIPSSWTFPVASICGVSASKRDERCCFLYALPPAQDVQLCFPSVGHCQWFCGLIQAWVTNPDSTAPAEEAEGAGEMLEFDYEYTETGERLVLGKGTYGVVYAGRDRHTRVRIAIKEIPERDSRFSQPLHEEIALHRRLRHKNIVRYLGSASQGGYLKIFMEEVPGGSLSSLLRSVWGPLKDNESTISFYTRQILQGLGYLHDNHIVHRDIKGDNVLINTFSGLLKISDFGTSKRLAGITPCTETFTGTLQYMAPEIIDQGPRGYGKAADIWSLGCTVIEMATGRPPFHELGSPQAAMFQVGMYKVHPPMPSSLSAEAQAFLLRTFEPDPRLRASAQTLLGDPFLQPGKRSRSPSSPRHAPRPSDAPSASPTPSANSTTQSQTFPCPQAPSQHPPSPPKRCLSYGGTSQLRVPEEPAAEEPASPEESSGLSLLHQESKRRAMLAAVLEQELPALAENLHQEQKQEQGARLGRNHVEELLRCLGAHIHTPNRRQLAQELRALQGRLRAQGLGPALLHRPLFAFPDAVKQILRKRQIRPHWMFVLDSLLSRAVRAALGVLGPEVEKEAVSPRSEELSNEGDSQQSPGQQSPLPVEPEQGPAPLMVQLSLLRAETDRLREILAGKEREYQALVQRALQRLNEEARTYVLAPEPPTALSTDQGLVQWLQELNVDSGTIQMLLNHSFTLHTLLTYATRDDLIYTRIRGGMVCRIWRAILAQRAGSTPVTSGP

MASTL = biological target: T2, MASTL (Homo sapiens, UniProt Q96GX5); test: as above
T2 construct: endogenous in cells; host or cells: HeLa S3
T2 sequence (Q96GX5 1-879): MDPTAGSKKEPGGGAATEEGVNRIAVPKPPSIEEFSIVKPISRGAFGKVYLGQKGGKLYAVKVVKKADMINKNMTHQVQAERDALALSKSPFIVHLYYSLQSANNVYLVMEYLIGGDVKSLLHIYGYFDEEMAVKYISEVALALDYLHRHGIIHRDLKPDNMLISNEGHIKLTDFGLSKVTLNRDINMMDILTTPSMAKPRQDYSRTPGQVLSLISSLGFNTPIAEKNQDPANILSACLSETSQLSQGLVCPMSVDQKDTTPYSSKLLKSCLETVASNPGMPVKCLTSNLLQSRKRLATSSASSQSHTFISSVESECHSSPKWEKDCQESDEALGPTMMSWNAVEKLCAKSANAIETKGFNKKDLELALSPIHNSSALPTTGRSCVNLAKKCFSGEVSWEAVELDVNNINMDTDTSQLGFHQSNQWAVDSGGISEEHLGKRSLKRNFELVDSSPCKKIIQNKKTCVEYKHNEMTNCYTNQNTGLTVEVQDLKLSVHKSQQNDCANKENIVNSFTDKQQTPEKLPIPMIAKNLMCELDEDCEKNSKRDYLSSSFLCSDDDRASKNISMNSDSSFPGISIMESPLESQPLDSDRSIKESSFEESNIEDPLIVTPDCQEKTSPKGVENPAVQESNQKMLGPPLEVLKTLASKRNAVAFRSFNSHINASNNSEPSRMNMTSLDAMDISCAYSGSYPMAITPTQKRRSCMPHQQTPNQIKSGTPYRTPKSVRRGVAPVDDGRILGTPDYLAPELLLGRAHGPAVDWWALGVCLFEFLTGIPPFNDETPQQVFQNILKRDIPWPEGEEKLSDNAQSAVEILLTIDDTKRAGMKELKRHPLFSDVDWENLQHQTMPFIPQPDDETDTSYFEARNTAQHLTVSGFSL

Chain of NUDT12 (Q9BQG2 whole entry): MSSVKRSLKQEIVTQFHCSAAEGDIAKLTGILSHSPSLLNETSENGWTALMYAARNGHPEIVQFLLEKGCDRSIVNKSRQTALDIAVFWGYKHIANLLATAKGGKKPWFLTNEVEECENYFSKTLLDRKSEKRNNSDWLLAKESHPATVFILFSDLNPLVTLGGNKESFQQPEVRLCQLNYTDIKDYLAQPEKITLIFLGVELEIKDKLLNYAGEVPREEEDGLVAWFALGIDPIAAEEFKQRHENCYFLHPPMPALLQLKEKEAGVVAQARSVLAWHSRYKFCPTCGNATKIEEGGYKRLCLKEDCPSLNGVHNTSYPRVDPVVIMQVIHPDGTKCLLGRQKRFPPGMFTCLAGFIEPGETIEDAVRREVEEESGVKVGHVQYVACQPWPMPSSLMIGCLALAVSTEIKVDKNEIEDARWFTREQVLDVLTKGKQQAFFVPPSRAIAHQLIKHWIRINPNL

Row | Compound | rAVERAGE (10 nM/0 nM Gef.) (NUDT12) | rAVERAGE (100 nM/0 nM Gef.) (NUDT12) | rAVERAGE (1000 nM/0 nM Gef.) (NUDT12) | rAVERAGE (10000 nM/0 nM Gef.) (NUDT12) | Percent bound at various 16742 conc (MAP3K6; Experiment 1, 8.74 μM 16742) | Percent bound at various 16742 conc (MAP3K6; Experiment 1, 52 μM 16742) | Kd (MAP3K6; Experiment 1, read-out: Kd) | Percent bound at various 16742 conc (MAP3K6; Experiment 2, 1.87 μM 16742) | Percent bound at various 16742 conc (MAP3K6; Experiment 2, 8.74 μM 16742) | Percent bound at various 16742 conc (MAP3K6; Experiment 2, 52 μM 16742) | Kd (MAP3K6; Experiment 2, read-out: Kd) | Kd (MAP3K6; average of two experiments, read-out: Kd Avg) | Percent bound at various 16742 conc (MASTL; Experiment 1, 1.87 μM 16742) | Percent bound at various 16742 conc (MASTL; Experiment 1, 8.74 μM 16742) | Percent bound at various 16742 conc (MASTL; Experiment 1, 52 μM 16742) | Percent bound at various 16742 conc (MASTL; Experiment 2, 52 μM 16742) | Kd (MASTL; single Kd value, obtained from only one experiment)
1 | COc1cc2ncnc(Nc3ccc(F)c(Cl)c3)c2cc1OCCCN1CCOCC1 [gefitinib] | 1.04 | 0.93 | 0.92 | 0.09 | – | – | – | – | – | – | – | – | – | – | – | – | –
2 | CC(C)n1c(=O)ccc2cnc(Nc3ccc(OCCN)cc3)nc21 [V16742] | – | – | – | – | 3.57% | 51.68% | 57.7 µM | 2.67% | 3.94% | 13.37% | 326 µM | 192 µM | 0.55% | 9.59% | 51.63% | 62.29% | 53.8 µM
